# Results from patent publication US7183267B2, “β-lactamase inhibitors and methods of use thereof” (priority 2003, dated 2007).
# Tests used:
# TEM-1 β-lactamase [1] = target: T1, TEM-1 β-lactamase (Escherichia coli, UniProt P62593); experiment: TEM-1 β-lactamase inhibition assay (nitrocefin hydrolysis, 486 nm); assay type: biochemical
# Description: (§1) The inhibition of TEM-1 β-lactamase was determined spectrophotometrically. B-lactamase activity was followed by measuring the hydrolysis of nitrocefin, [3-(2,4-dinitrostyryl)-(6R, 7R)-7-(2-thienylacetamido)-ceph-3-em-4-carboxylic acid, E-isomer], (Calbiochem, San Diego, Calif., USA) at 486 nm. Inhibition assays were performed at 25° C. in 50 mM sodium phosphate, 5% DMSO, pH 7.0. […] Inhibitor was added to the enzyme and incubated for ten minutes before the addition of substrate. Inhibition constants (Ki) for the inhibitors are obtained at the desired temperature and solvent conditions by measuring the rate of substrate hydrolysis at increasing amounts of inhibitors.
# The competitive inhibition of β-lactamase was determined spectrophotometrically using a Varian (Walnut Creek, Calif.) Cary 100 UV-Visible spectrophotometer. β-lactamase activity was followed by measuring the hydrolysis of nitrocefin, [3-(2,4-dinitrostyryl)-(6R, 7R)-7-(2-thienylacetamido)-ceph-3-em-4-carboxylic acid, E-isomer], (Calbiochem, San Diego, Calif.) at 486 nm. Inhibition assays were performed at 25° C. in 50 mM sodium phosphate, 5% DMSO, pH 7.0. […] Penicillin G (Sigma, St. Louis, Mo.) was also used as a substrate to determine KM and kcat.
# Inhibitor was added to protein and incubated for ten minutes before the addition of substrate. Inhibition constants were determined by measuring the loss of P-lactamase activity with increasing inhibitor concentrations and fitting the data to standard equations for competitive inhibition.
# (§2) These methods can also be used to express and assay recombinant TEM-1 variant of β-lactamase.
# β-lactamase R244S = β-lactamase R244S (Escherichia coli, UniProt P62593, R241S); experiment: Isothermal titration calorimetry, binding enthalpy, R244S mutant
# Description: (§3) The binding of the compounds of the present invention to β-lactamase was also measured by isothermal titration calorimetry.
# (§4) These experiments, in combination with the inhibition assays, indicate that the compounds identified in this disclosure bind to the wild type as well as drug resistant beta lactamases with favorable binding enthalpies. This is a very important characteristic from the point of view of further optimization since it facilitates the achievement of extremely high affinities and low susceptibilities to drug resistant mutations and naturally occurring polymorphisms.
# (§5) Isothermal titration calorimetry was performed on a high-precision VP-ITC titration calorimeter (Microcal Inc., Northampton, Mass.). β-Lactamase solutions were titrated with inhibitors in 50 mM sodium phosphate, 2% DMSO, pH 7.0, with β-lactamase concentrations ranging from 15 to 25 μM and inhibitor concentrations ranging from 300 to 1000 μM. The heat evolved from each injection was obtained by integrating the calorimetric signal. Heat of binding was obtained as the difference between the heat of reaction and the heat of inhibitor dilution. Data were analyzed using Origin 7.0 (OriginLab Corporation, Northampton, Mass.).
# TEM-1 β-lactamase [2] = target: T1, TEM-1 β-lactamase; experiment: Isothermal titration calorimetry, binding to TEM-1 β-lactamase (Example 17); conditions: ITC
# Description: as §5, §2
# Also shown are the results obtained for β-lactamase variant TEM-1.
# β-lactamase wt = β-lactamase wt (Escherichia coli, UniProt P62593); experiment: Isothermal titration calorimetry, binding enthalpy, wild type
# Description: as §3, §4, §5
# β-lactamase M69I = β-lactamase M69I (Escherichia coli, UniProt P62593, M67I); experiment: Isothermal titration calorimetry, binding enthalpy, M69I mutant
# Description: as §3, §4, §5
# β-lactamase E104K = β-lactamase E104K (Escherichia coli, UniProt P62593, E102K); experiment: Isothermal titration calorimetry, binding enthalpy, E104K mutant
# Description: as §3, §4, §5
# β-lactamase mutant M69I = β-lactamase mutant M69I (Escherichia coli, UniProt P62593, M67I); assay type: biochemical; conditions: number higher than 1 reflects a loss of potency against mutant
# Description: as §1
# (§6) Three of the most important mutations are M69I, R244S and E104K.
# β-lactamase mutant R244S = β-lactamase mutant R244S (Escherichia coli, UniProt P62593, R241S); assay type: biochemical; conditions: number higher than 1 reflects a loss of potency against mutant
# Description: as §1, §6
# β-lactamase mutant E104K = β-lactamase mutant E104K (Escherichia coli, UniProt P62593, E102K); assay type: biochemical; conditions: number higher than 1 reflects a loss of potency against mutant
# Description: as §1, §6
# [3] = system: methicillin sensitive S. aureus ATCC 25923 (MSSA); experiment: MIC assay, broth microdilution, MSSA; assay type: cell-based; conditions: for MIC: Staphylococcus aureus, 24 h
# Description: (3) methicillin sensitive S. aureus ATCC 25923 (MSSA). This strain was obtained from ATCC and was used as a control.
# (§7) The strains were processed according to procedures recommended by ATCC, or procedures that are routinely used. Single colonies of each organism were picked for purification to generate pure working cultures. Prior to each experiment each strain was subcultured on a fresh Mueller-Hinton agar plate (MHA).
# (§8) Inocula for the MIC assays were prepared by transferring a tiny portion of one colony from a MHA plate to 2 ml of Mueller-Hinton broth (MHB) such that the estimated cell density was about 10^7 colony forming unit (CFU)/ml. This cell suspension was then further diluted 10-fold (to 10^6 CFU/ml) by transferring the 2 ml cell suspension to 18 ml of MHB. Addition of 50 μl of this dilute cell suspension to 50 μl of growth medium yielded the desired cell density, namely about 5×10^4 CFU/well, or 5×10^5 CFU/ml.
# (§9) The MIC value of oxacillin was determined using the broth microdilution procedure recommended by the National Committee of Clinical Laboratory Standards (NCCLS, 2000).
# (§10) The MIC experiments were performed in duplicate in 96-well microtiter plates using MHB. A stock solution of 2.6 mg/0.5 ml was prepared in dimethylsulfoxide (DMSO). A total of 8 two-fold serial dilutions were made with DMSO. Initial oxacillin doses used were (μg/ml): 64, 32, 16, 8, 4, 2, 1, and 0.5. Doses were adjusted in the confirmatory experiment, if needed, in order to establish an actual MIC value.
# (§11) To each well of a 96 well microtiter plate was added 47.5 μl of MHB. A volume of 2.5 μl of each dilution of oxacillin was then transferred to appropriate wells containing the medium. All wells, except the sterility control wells, were then inoculated with 50 μl of a diluted cell suspension to give a final volume of 100 μl and a final cell density of 5×10^4 CFU/well. The volume in the sterility control wells was adjusted to 100 μl with MHB. A sterile pipette tip was used to mix the contents of each well (one tip was used going from the low to the high concentration in the same column). The microtiter plates were covered with the lids and were placed in large Stratagene Big Blue plates (Cat. # 400041). Four large kimwipes moistened with tap water were placed near the edges of the Stratagene plates to prevent evaporation of the medium. The microtiter plates were incubated for at least 24 hours at 35° C. The plates were then evaluated for growth in each well. Controls included: medium sterility and negative control (medium and bacteria only).
# (§12) The procedure used to determine the antimicrobial activity of the compounds of the present invention was identical to the broth microdilution procedure described above with the exception of the preparation of the stock solutions. Stock solution at concentration of 40.96 mg/0.5 ml was prepared in DMSO for each of the compounds. A total of 8 two-fold dilutions were then made in DMSO. A volume of 2.5 μl of each dilution was delivered to appropriate wells. The initial doses used were (μg/ml): 512, 256, 128, 64, 32, 16, 8, and 4.
# (§13) A numerical code was used to evaluate the extent of growth as indicated below. • 0: absence of growth • 1: barely visible (faint) growth • 2: fair growth but less than the negative solvent control • 3: growth is equivalent to the negative solvent control.
# (§14) The lowest dose at which no visible growth is observed was determined to be the MIC value.
# (§15) MIC assays were performed with oxacillin and the four compounds. Each of the compounds was tested at the following 8 doses (μg/ml): 512, 256, 128, 64, 32, 16, 8, and 4. Oxacillin was tested at the following 8 doses (μg/ml): 64, 32, 16, 8, 4, 2, 1, and 0.5.
# [4] = system: methicillin resistant S. aureus ATCC 33591 (MRSA-ATCC); experiment: MIC assay, broth microdilution, MRSA-ATCC; assay type: cell-based; conditions: for MIC: Staphylococcus aureus, 24 h
# Description: (1) methicillin resistant S. aureus ATCC 33591 (MRSA-ATCC). This strain was obtained from American Type Culture Collection (ATCC), Manassas, Md.;
# as §7, §8, §9, §10, §11, §12, §13, §14, §15
# [5] = system: methicillin resistant S. aureus from Stanford University Hospital (MRSA-SU); experiment: MIC assay, broth microdilution, MRSA-SU; assay type: cell-based; conditions: for MIC: Staphylococcus aureus, MRSA, 24 h
# Source text: (2) methicillin resistant S. aureus from Stanford University Hospital Clinical Microbiology/Virology Laboratory (MRSA-SU). […] Such Staphylococci are also resistant to all penicillins, and all cephalosporins, in addition to all β-lactamase inhibitor combinations (including ampicillin/sulbactarn, amoxicillin/clavulanic acid, piperacillin/tazobactam), imipenem, and meropenem; and
# as §7, §8, §9, §10, §11, §12, §13, §14, §15
# [6] = Ki from Lineweaver-Burke Analysis, values in parenthesis, Lineweaver-Burke analysis
# [7] = Ki, 25° C., 50 mM sodium phosphate, 5% DMSO, pH 7.0, enzyme 5 nM, nitrocefin 167 μM
smiles,measurement,setting,value
"O=C(Oc1c(Cl)cccc1[N+](=O)[O-])c1cc(B(O)O)cc([N+](=O)[O-])c1 [Compound (1h), 3-(2-Chloro-6-nitrophenoxycarbonyl)-5-nitrophenylboronic acid]",Ki,TEM-1 β-lactamase [1]; [6],0.65 µM
same,Ki,TEM-1 β-lactamase [1]; [7],9.5 ± 0.8 µM
same,Ki,"TEM-1 β-lactamase [1]; Ki, TEM-1 β-lactamase",9.5 µM
same,ΔH R244S,β-lactamase R244S,-11.931 kcal/mol
same,ΔG,TEM-1 β-lactamase [2],-6.614 kcal/mol
same,ΔH,TEM-1 β-lactamase [2],-1.14 kcal/mol
same,−TΔS,TEM-1 β-lactamase [2],-5.474 kcal/mol
same,ΔH wt,β-lactamase wt,-1.14 kcal/mol
same,ΔH M69I,β-lactamase M69I,-0.953 kcal/mol
same,ΔH E104K,β-lactamase E104K,-1.896 kcal/mol
same,"Loss of potency: ratio of the inhibitory constant between mutant and wild type (Potencywt/Potencymutant), M69I",β-lactamase mutant M69I,1.2
same,"Loss of potency: ratio of the inhibitory constant between mutant and wild type (Potencywt/Potencymutant), R244S",β-lactamase mutant R244S,0.86
same,"Loss of potency: ratio of the inhibitory constant between mutant and wild type (Potencywt/Potencymutant), E104K",β-lactamase mutant E104K,0.77
"O=C(Oc1ccccc1Cl)c1cc(B(O)O)cc([N+](=O)[O-])c1 [Compound (1j), 3-(2-Chlorophenoxycarbonyl)-5-nitrophenylboronic acid]",Ki,TEM-1 β-lactamase [1]; [6],1.31 µM
same,Ki,TEM-1 β-lactamase [1]; [7],28 ± 2 µM
same,ΔH R244S,β-lactamase R244S,-6.877 kcal/mol
same,ΔH wt,β-lactamase wt,-2.145 kcal/mol
same,ΔH M69I,β-lactamase M69I,-1.693 kcal/mol
same,ΔH E104K,β-lactamase E104K,-2.756 kcal/mol
same,"Loss of potency: ratio of the inhibitory constant between mutant and wild type (Potencywt/Potencymutant), M69I",β-lactamase mutant M69I,0.33
same,"Loss of potency: ratio of the inhibitory constant between mutant and wild type (Potencywt/Potencymutant), R244S",β-lactamase mutant R244S,0.37
same,"Loss of potency: ratio of the inhibitory constant between mutant and wild type (Potencywt/Potencymutant), E104K",β-lactamase mutant E104K,0.15
O=C(O)c1cccc(B(O)O)c1 [Compound F1203],bacteriotoxicity at high dose,"[3]; 512 μl/ml, MSSA",not bacteriotoxic
same,MIC,[3],> 512 µg/mL
same,bacteriotoxicity at high dose,"[4]; 512 μl/ml, MRSA-ATCC",not bacteriotoxic
same,MIC,[4],> 512 µg/mL
same,bacteriotoxicity at high dose,"[5]; 512 μl/ml, MRSA-SU",not bacteriotoxic
same,MIC,[5],> 512 µg/mL
O=C(Oc1ccccc1[N+](=O)[O-])c1cc(B(O)O)cc([N+](=O)[O-])c1 [Compound F1204],MIC,[3],512 µg/mL
same,MIC,[4],256 µg/mL
same,MIC,[5],512 µg/mL
COC(=O)c1cc(B(O)O)cc([N+](=O)[O-])c1 [Compound F1212],Ki,"TEM-1 β-lactamase [1]; 25° C., 50 mM sodium phosphate, 5% DMSO, pH 7.0, enzyme 5 nM, nitrocefin 167 μM",95 µM
same,ΔH R244S,β-lactamase R244S,-8.9 kcal/mol
same,ΔH wt,β-lactamase wt,-4.7 kcal/mol
same,ΔH M69I,β-lactamase M69I,-3.3 kcal/mol
same,ΔH E104K,β-lactamase E104K,-4.5 kcal/mol
